Here are results for six compounds from patent publication US12391701B2, “Chromene-based compounds, methods and uses thereof” (University of Minho, priority 2019, dated 2025).

Experiment [1] relates to acute leukemia cell line HL-60. Briefly: Cell viability MTS assay, HL-60. In kind it is cell-based. The following applies: Homo sapiens, 72 hours. As to the method: In an embodiment, the antiproliferative activity of compounds MC408, MC409, MC421 and MC406 was further determined against glioma cell lines (U87, GAMG and GL18) and acute leukemia cell lines (HL-60, KG-1 and Jurkat). This was done in order to evaluate if the compounds presented an equally interesting anticancer profile in other cancer cell models. Cell viability was determined using the MTS assay, after exposure of the cells to the respective compounds for 72 hours at appropriate concentration ranges to determine the respective IC50 values.
In an embodiment, three human breast cancer cell lines Hs578T, MDA-MB-468 and MCF-7, and a normal breast cell line MCF-10A, were obtained from ATCC (American Type Culture Collection). The cancer cell lines were cultured in Dulbecco's modified Eagle medium, 4.5 g/l glucose (DMEM, Gibco) supplemented with 10% heating inactivated Fetal Bovine Serum (FBS, Gibco) and 1% antibiotic solution (Penicillin-Streptomycin, Gibco). The normal cell line was cultured in Dulbecco's Modified Eagle Medium: Nutrient Mixture F-12 (DMEM/F12, Gibco) supplemented with 5% heating inactivated FBS (Gibco), 1% antibiotic solution (Penicillin-Streptomycin, Gibco), 1% steroid hormone (Hydrocortisone, Sigma-Aldrich), 0.1% peptide hormone (Insulin, Sigma-Aldrich) and 0.01% protein complex (Cholera Toxin, Gibco). Two distinct human acute myeloid leukemia (AML) cell lines, HL-60 (FAB M2) and KG-1 (erythroleukemia-FAB M6), and one human lymphoblastic leukemia (ALL) cell line, Jurkat (T cell type), were also used. These three cell lines were obtained from German Collection of Microorganisms and Cell cultures (DMSZ®, Deutsche Sammlung von Mikroorganismen and Zellkulturen in German). Cells were cultured in RPMI 1640 medium (Biochrom®-Merck Millipore) supplemented with 10% heating inactivated FBS (Biochrom®-Merck Millipore) and 1% antibiotic/antimitotic mixture (Invitrogen®). Three human glioblastoma (GBM) cell line models, two established and commercially available cell lines (U87MG and GAMG, kind gift from Rui M. Reis) and one primary GBM culture (GLIB) were also used. GBM cells were cultures in DMEM (Biochrom-Merck Millipore), all supplemented with 10% FBS. The Renal cell carcinoma cell lines A498, 786-O, Caki-2 and HK2 were obtained from ATCC. The cancer cell line A498 was cultured in MEM medium (Biochrom®-Merck Millipore), 786-O was cultured in RPMI 1640 medium (Biochrom®-Merck Millipore), Caki-2 was cultured in Mc Coys medium (Biochrom®-Merck Millipore) and HK2 was cultured in RPMI 1640 medium (Biochrom®-Merck Millipore). All the media were supplemented with 10% heat inactivated FBS (Biochrom®-Merck Millipore) and 1% antibiotic/antimitotic mixture (Invitrogen®). All cells were grown in a humidified incubator at 37° C. and 5% CO2. […]

The next experiment concerns MCF-7 cells. Nature of the experiment: Wound-healing assay, MCF-7 cell migration. In kind it is cell-based, human. The following applies: for cell migration less than the control: after 72 hours of treatment, IC50 (and ½IC50) concentration. The protocol:
In an embodiment, the effect of the four selected compounds (MC408, MC409, MC406 and MC421) was further evaluated on cell migration (FIG. 1). MCF-7 cells were treated with the respective IC50 and half of the IC50 values for 72 hours and the wound-healing assay was performed. Half of the IC50 concentration was used for each compound to evaluate concentration-dependent effects. […] Results are presented as mean±SD of at least three independent experiments, *p<0.05; **p<0.01; ***p<0.001; ****p<0.0001 compared to control (DMSO, 0.5%).
In an embodiment, cell migration was assessed by the wound-healing assay that mimics the process of cell migration during wound-healing in vivo. This method is based on making a scratch, simulating a wound in a cell monolayer, capturing the images at the beginning and regular intervals during cell migration process to close the wound and comparing the images to quantify the cell migration rate. MCF-7 and Caki-2 cells were plated in 6-well plates at a density of 9.0×10^5 and 3.0×10^5 per 2 mL, respectively, and grown overnight at 37° C. in a 5% CO2 humidified atmosphere. A 200 μL pipette tip was used to make two scratches in a layer of confluent cells. Cells were gently washed once with 500 μL of PBS. MCF-7 cells were treated with compounds at the respective IC50, ½IC50, or 0.5% DMSO (control), for 72 hours. At 0, 12, 24, 48 and 72 hours, specific wound sites (four positions for each wound) were photographed. […] Images were captured at 100× magnification using an Olympus IX51 inverted microscope equipped with an Olympus DP20 Digital Camera System. Assessment of five migration distances was performed using BeWound 1.7.1 and the percentage of cell migration normalized to the control was plotted using GraphPad Prism 6 software. Three independent experiments were performed for each compound. The significance of the difference between different groups was determined with Student t-test.

For experiment [2], the system named is Caki-2 cediranib-resistant cells. Briefly: BrdU proliferation assay, Caki-2 cediranib-resistant. The format is cell-based. The note with it: 24 and 48 hours; IC50 and ½IC50; drug-resistant.

Turning to `COc1cccc2c1Oc1nc(-c3ccc(F)cc3)[nH]c1C2C1c2cccc(OC)c2Oc2nc(-c3ccc(F)cc3)[nH]c21` (stereo not drawn) [MC406, 2,2′-bis(4-fluorophenyl)-5,5′-dimethoxy-1,1,9,9′-tetrahydro-9,9′-bichromeno[2,3-]imidazoles], the IC50 in experiment [1] was 0.65 µM. For the same compound, the “cell migration less than the control” value in the experiment on MCF-7 cells was determined as 20%.
`COc1cccc2c1Oc1nc(-c3ccc(F)cc3)[nH]c1C2` [MC409, 2-(4-fluorophenyl)-5-methoxy-3,9-dihydrochromeno[2,3-d]imidazoles] came in with an IC50 in experiment [1] of 0.65 µM. Further, in the experiment with MCF-7 cells (after 12 hours, IC50 and ½IC50, control 0.5% DMSO), the “decrease of percentage of cell migration relative to control” value was “about 40%”. Also, the “cell migration less than the control” value with MCF-7 cells is recorded as “about 12%”.
In the case of `COc1cccc2c1Oc1nc(-c3ccc(O)cc3)[nH]c1C2` [MC413, 4-(5-methoxy-3,9-dihydrochromeno[2,3-d]imidazol-2-yl)phenol], the “effect on cell proliferation (BrdU)” value in experiment [2] is recorded as “decrease cell proliferation”.
As to `COc1cccc2c1Oc1nc(-c3ccc(Br)cc3)[nH]c1C2C1c2cccc(OC)c2Oc2nc(-c3ccc(Br)cc3)[nH]c21` (stereo not drawn) [MC421, 2,2′-bis(4-bromophenyl)-5,5′-dimethoxy-1,1,9,9′-tetrahydro-9,9′-bichromeno[2,3-]imidazoles], in experiment [1], it took 0.25 µM to reach half-maximal inhibition (IC50). The “cell migration less than the control” value in the experiment with MCF-7 cells is on record as 13%. In experiment [2], the “effect on cell proliferation (BrdU)” value is recorded as “decrease cell proliferation”.
On to `COc1cccc2c1Oc1nc(-c3ccc(Br)cc3)[nH]c1C2` [MC408, 2-(4-bromophenyl)-5-methoxy-3,9-dihydrochromeno[2,3-d]imidazoles], for which the IC50 in experiment [1] amounted to 0.57 µM. Moreover, the “cell migration less than the control” value in the experiment with MCF-7 cells is given as 20%.
Regarding `COc1cccc2c1Oc1nc(-c3ccccc3)[nH]c1C2` [MC350, 5-methoxy-2-phenyl-3,9-dihydrochromeno[2,3-d]imidazoles], the “effect on cell proliferation (BrdU)” value in experiment [2] was “decrease cell proliferation”.
